Measurements as given in publication PMC12527922, “Cocaine chemogenetics blunts drug-seeking by synthetic physiology” (Nature, 2025).
Read-outs that look alike come from different tables or passages of the source.

Legend:
Assay in all cases: cell-based
Assay type in all cases: cell-based, human α7 nAChR LBD, mouse 5HT3 IPD
[1] = target: α7–5HT3 mutant chimeric channels (Homo sapiens, UniProt P36544, L141A)
[2] = target: α7–5HT3 mutant chimeric channels (Homo sapiens, UniProt P36544, L141F)
[3] = target: α7–5HT3 mutant chimeric channels (Homo sapiens, UniProt P36544, L141P)
[4] = target: α7–5HT3 mutant chimeric channels (Homo sapiens, UniProt P36544, L141S)
[5] = target: α7–5HT3 mutant chimeric channels (Homo sapiens, UniProt P36544, Q139A)
[6] = target: α7–5HT3 mutant chimeric channels (Homo sapiens, UniProt P36544, Q139D)
[7] = target: α7–5HT3 mutant chimeric channels (Homo sapiens, UniProt P36544, Q139K)
[8] = target: α7–5HT3 mutant chimeric channels (Homo sapiens, UniProt P36544, Q139L)
[9] = target: α7–5HT3 mutant chimeric channels (Homo sapiens, UniProt P36544, Q139M)
[10] = target: α7–5HT3 mutant chimeric channels (Homo sapiens, UniProt P36544, Q139P)
[11] = target: α7–5HT3 mutant chimeric channels (Homo sapiens, UniProt P36544, Q139R)
[12] = target: α7–5HT3 mutant chimeric channels (Homo sapiens, UniProt P36544, Q139V)
[13] = target: α7–5HT3 mutant chimeric channels (Homo sapiens, UniProt P36544, Q139Y)
[14] = target: α7–5HT3 mutant chimeric channels (Homo sapiens, UniProt P36544, Q79A)
[15] = target: α7–5HT3 mutant chimeric channels (Homo sapiens, UniProt P36544, Q79G)
[16] = target: α7–5HT3 mutant chimeric channels (Homo sapiens, UniProt P36544, S170F)
[17] = target: α7–5HT3 mutant chimeric channels (Homo sapiens, UniProt P36544, S170H)
[18] = target: α7–5HT3 mutant chimeric channels (Homo sapiens, UniProt P36544, S170L)
[19] = target: α7–5HT3 mutant chimeric channels (Homo sapiens, UniProt P36544, S170T)
[20] = target: α7–5HT3 mutant chimeric channels (Homo sapiens, UniProt P36544, S170W)
[21] = target: α7–5HT3 mutant chimeric channels (Homo sapiens, UniProt P36544, S170Y)
[22] = target: α7–5HT3 mutant chimeric channels (Homo sapiens, UniProt P36544, S172K)
[23] = target: α7–5HT3 mutant chimeric channels (Homo sapiens, UniProt P36544, S172V)
[24] = target: α7–5HT3 mutant chimeric channels (Homo sapiens, UniProt P36544, W77F)
[25] = target: α7–5HT3 mutant chimeric channels (Homo sapiens, UniProt P36544, W77L)
[26] = target: α7–5HT3 mutant chimeric channels (Homo sapiens, UniProt P36544, W77Y)

Chain of α7–5HT3 mutant chimeric channels (Homo sapiens, UniProt P36544, Q139V) (P23979 242-489): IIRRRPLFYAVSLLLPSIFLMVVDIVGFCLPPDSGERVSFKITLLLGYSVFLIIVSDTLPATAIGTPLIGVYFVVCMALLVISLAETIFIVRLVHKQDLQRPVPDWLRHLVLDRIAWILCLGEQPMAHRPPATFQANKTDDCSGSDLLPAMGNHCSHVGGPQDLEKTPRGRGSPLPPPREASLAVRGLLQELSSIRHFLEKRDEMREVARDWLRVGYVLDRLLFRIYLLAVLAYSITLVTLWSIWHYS
Chain of α7–5HT3 mutant chimeric channels (Homo sapiens, UniProt P36544, Q139V) (P36544 23-224 Q139V): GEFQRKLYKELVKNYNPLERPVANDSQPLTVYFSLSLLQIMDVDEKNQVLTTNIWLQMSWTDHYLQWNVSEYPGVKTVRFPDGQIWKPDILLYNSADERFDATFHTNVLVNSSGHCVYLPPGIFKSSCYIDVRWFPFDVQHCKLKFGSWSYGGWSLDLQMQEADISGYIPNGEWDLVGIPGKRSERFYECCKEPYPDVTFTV
Chain of α7–5HT3 mutant chimeric channels (Homo sapiens, UniProt P36544, Q139A) (P23979 242-489): as the sequence (P23979 242-489) above
Chain of α7–5HT3 mutant chimeric channels (Homo sapiens, UniProt P36544, Q139A) (P36544 23-224 Q139A): as the sequence (P36544 23-224 Q139V) above, with V117A counted along it
Chain of α7–5HT3 mutant chimeric channels (Homo sapiens, UniProt P36544, Q139D) (P23979 242-489): as the sequence (P23979 242-489) above
Chain of α7–5HT3 mutant chimeric channels (Homo sapiens, UniProt P36544, Q139D) (P36544 23-224 Q139D): as the sequence (P36544 23-224 Q139V) above, with V117D counted along it
Chain of α7–5HT3 mutant chimeric channels (Homo sapiens, UniProt P36544, Q139P) (P23979 242-489): as the sequence (P23979 242-489) above
Chain of α7–5HT3 mutant chimeric channels (Homo sapiens, UniProt P36544, Q139P) (P36544 23-224 Q139P): as the sequence (P36544 23-224 Q139V) above, with V117P counted along it
Chain of α7–5HT3 mutant chimeric channels (Homo sapiens, UniProt P36544, Q79A) (P23979 242-489): as the sequence (P23979 242-489) above
Chain of α7–5HT3 mutant chimeric channels (Homo sapiens, UniProt P36544, Q79A) (P36544 23-224 Q79A): as the sequence (P36544 23-224 Q139V) above, with Q57A, V117Q counted along it
Chain of α7–5HT3 mutant chimeric channels (Homo sapiens, UniProt P36544, Q139R) (P23979 242-489): as the sequence (P23979 242-489) above
Chain of α7–5HT3 mutant chimeric channels (Homo sapiens, UniProt P36544, Q139R) (P36544 23-224 Q139R): as the sequence (P36544 23-224 Q139V) above, with V117R counted along it
Chain of α7–5HT3 mutant chimeric channels (Homo sapiens, UniProt P36544, Q139K) (P23979 242-489): as the sequence (P23979 242-489) above
Chain of α7–5HT3 mutant chimeric channels (Homo sapiens, UniProt P36544, Q139K) (P36544 23-224 Q139K): as the sequence (P36544 23-224 Q139V) above, with V117K counted along it
Chain of α7–5HT3 mutant chimeric channels (Homo sapiens, UniProt P36544, W77F) (P23979 242-489): as the sequence (P23979 242-489) above
Chain of α7–5HT3 mutant chimeric channels (Homo sapiens, UniProt P36544, W77F) (P36544 23-224 W77F): as the sequence (P36544 23-224 Q139V) above, with W55F, V117Q counted along it
Chain of α7–5HT3 mutant chimeric channels (Homo sapiens, UniProt P36544, Q79G) (P36544 23-224 Q79G): as the sequence (P36544 23-224 Q139V) above, with Q57G, V117Q counted along it
Chain of α7–5HT3 mutant chimeric channels (Homo sapiens, UniProt P36544, Q79G) (P23979 242-489, further chain): as the sequence (P23979 242-489) above
Chain of α7–5HT3 mutant chimeric channels (Homo sapiens, UniProt P36544, L141S) (P36544 23-224 L141S): as the sequence (P36544 23-224 Q139V) above, with V117Q, L119S counted along it
Chain of α7–5HT3 mutant chimeric channels (Homo sapiens, UniProt P36544, L141S) (P23979 242-489, further chain): as the sequence (P23979 242-489) above

COC(=O)[C@H]1[C@@H](OC(=O)c2ccccc2)C[C@@H]2CC[C@H]1N2C [cocaine]
EC50 [1]: 3.5 µM
EC50 [2]: > 30 µM
EC50 ([2]; read-out: EC50 at α75HT3 L141F, sheet 1d, single determinations): > 30 µM
EC50 [3]: > 30 µM
EC50 ([3]; read-out: EC50 at α75HT3 L141P, Avg, sheet 1d, Avg): > 30 µM
EC50 [4]: > 30 µM
EC50 ([4]; read-out: EC50 at α75HT3 L141S, sheet 1d, single determinations): > 30 µM
EC50 [5]: > 30 µM
EC50 ([5]; read-out: EC50 at a7 5HT3 Q139A, Avg, sheet 1d, Avg): > 30 µM
EC50 [6]: > 30 µM
EC50 ([6]; read-out: EC50 at a7 5HT3 Q139D, Avg, sheet 1d, Avg): > 30 µM
EC50 [7]: > 30 µM
EC50 ([7]; read-out: EC50 at a7 5HT3 Q139K, Avg, sheet 1d, Avg): > 30 µM
EC50 [8]: > 30 µM
EC50 ([8]; read-out: EC50 at a7 5HT3 Q139L, sheet 1d, single determinations): > 30 µM
EC50 [9]: > 30 µM
EC50 ([9]; read-out: EC50 at a7 5HT3 Q139M, Avg, sheet 1d, Avg): > 30 µM
EC50 [10]: > 30 µM
EC50 ([10]; read-out: EC50 at a7 5HT3 Q139P, Avg, sheet 1d, Avg): > 30 µM
EC50 [11]: > 30 µM
EC50 ([11]; read-out: EC50 at a7 5HT3 Q139R, Avg, sheet 1d, Avg): > 30 µM
EC50 [12]: > 30 µM
EC50 ([12]; read-out: EC50 at a7 5HT3 Q139V, Avg, sheet 1d, Avg): > 30 µM
EC50 [13]: > 30 µM
EC50 ([13]; read-out: EC50 at a7 5HT3 Q139Y, Avg, sheet 1d, Avg): > 30 µM
EC50 [14]: > 30 µM
EC50 ([14]; read-out: EC50 at a7 5HT3 Q79A, sheet 1d, single determinations): > 30 µM
EC50 [15]: > 30 µM
EC50 ([15]; read-out: EC50 at a7 5HT3 Q79G, sheet 1d, single determinations): > 30 µM
EC50 [16]: > 30 µM
EC50 [17]: > 30 µM
EC50 [18]: 6 µM
EC50 [19]: > 30 µM
EC50 [20]: > 30 µM
EC50 [21]: > 30 µM
EC50 [22]: > 30 µM
EC50 [23]: > 30 µM
EC50 [24]: > 30 µM
EC50 ([24]; read-out: EC50 at a7 5HT3 W77F, sheet 1d, single determinations): > 30 µM
EC50 [25]: > 30 µM
EC50 ([25]; read-out: EC50 at a7 5HT3 W77L, Avg, sheet 1d, Avg): > 30 µM
EC50 [26]: > 30 µM
EC50 ([26]; read-out: EC50 at a7 5HT3 W77Y, Avg, sheet 1d, Avg): > 30 µM
